Source: US11684616B2, “Azalactam compounds as HPK1 inhibitors” (PFIZER INC., priority 2020, dated 2023)

Key:
[1] = tested on: Phospho-SLP-76 (Ser376) in Jurkat cells; test: Phospho-SLP-76 (Ser376) HTRF assay in anti-CD3 stimulated Jurkat cells; assay type: cell-based; details: Homo sapiens, Jurkat, 30 min pre-treatment, anti-CD3 stimulation 15 min, read-out: pSLP76 IC50
Protocol: Cell Based Assays Phospho-SLP-76 (Ser376) Homogeneous Time Resolved Fluorescence (HTRF) Assay
Jurkat cells were seeded at 90,000 cells/well in 90 uL of RPMI1640 growth medium containing 10% FBS and incubated at 37° C. with 5% CO2 overnight. The following day, compounds were serially diluted from a 10 mM top dose for an 11-point 3-fold dilution curve in DMSO. Compounds were intermediately diluted 1:100 into growth media prior to diluting 1:10 on cells for final concentration 10 μM to 0.1 nM in 0.1% DMSO. After 30 min pre-treatment with compounds, the cells were stimulated using 200 μg/mL of F(ab)2 complexed anti-CD3 (clone UCTH1) for 15 min at 37° C. with 5% CO2. Stimulation was stopped with ice cold PBS and cells were harvested by centrifugation before lysis in Cisbio lysis buffer (Cisbio, Bedford, Mass.). Lysates were transferred to white, low-volume plates containing anti-phospho-SLP-76-Cryptate plus anti-phospho-SLP-76-d2 HTRF antibodies and incubated overnight at room temperature protected from light according to the manufacturer's protocol (Cisbio, Bedford, Mass.). HTRF was measured on a Perkin Elmer Envision and IC50 values were calculated by concentration-response curve fitting utilizing four-parameter nonlinear regression analyses.

[2] = molecular target: human full-length autophosphorylated recombinant HPK1 (Homo sapiens (Human), UniProt Q92918); test: HPK1 biochemical enzyme assay (chelation-enhanced fluorescence, CHEF); details: 0.5 nM HPK1, 45 μM ATP, Morrison fit
Protocol: HPK1 Biochemical Enzyme Assay
HPK1 enzyme inhibition was measured by using the fluorescence-based chelation-enhanced fluorescence (CHEF) method (1), and by using a proprietary fluorescent peptide substrate, in which a cysteine residue is alkylated with a sulfonamido-oxine-based derivative to afford an amino acid termed C-Sox (CSx). […] Initial reaction velocities were determined by following the peptide fluorescence (λex=360 nm, λem=500 nm) at 30° C. for 15 min in a Tecan M1000 plate reader (Tecan Group Ltd., Mannedorf, Zurich, Switzerland).
Production of Autophosphorylated Full-Length Recombinant HPK1
The DNA sequence encoding full-length human HPK1 (Genbank NM_001042600.2) was synthesized at GenScript and contained a limited number of silent base changes to eliminate certain restriction endonuclease enzyme recognition sites, and fused to a DNA sequence encoding a Tobacco Etch Virus (TEV)-cleavable N-terminal polyhistidine purification tag. A recombinant baculovirus was prepared by using the Bac-to-Bac method (InVitrogen) and was used to infect 9 L of Sf21 insect cells. All purification steps were carried out at 4° C. Cells containing recombinant HPK1 were lysed in 50 mM HEPES-NaOH, pH 7.5, 250 mM NaCl, 1 mM tris(2-carboxyethyl)phosphine (TCEP), 10 μM leupeptin (Sigma), 10 μM E-64 (Sigma), and one ‘EDTA-free’ protease inhibitor tablet (Roche) per 75 mL buffer, centrifuged at 15,000×g for 1 h and the supernatant passed over 5 mL of ProBond IMAC resin (InVitrogen). After washing, HPK1 was eluted with 12.5 mL of 50 mM HEPES-NaOH, pH 7.5, 400 mM NaCl, 250 mM imidazole-HCl pH 7.5, 1 mM TCEP, 2 μM leupeptin, and 2 μM E-64. The eluted HPK1 was dialyzed overnight against 0.8 L of 50 mM HEPES-NaOH, pH 7.5, 400 mM NaCl, 20 mM imidazole-HCl pH 7.5, 1 mM TCEP, 2 μM leupeptin, 2 μM E-64, 2 mM ATP-NaOH pH 7.3, 5 mM MgCl2 and 1 mg TEV (this step simultaneously allows for reduction of the imidazole concentration in preparation for the subsequent reverse IMAC chromatography step, removal of the polyhistidine purification tag by TEV protease, and autophosphorylation of HPK1 in the presence of MgATP). The de-tagged and autophosphorylated HPK1 was adjusted to 40 mM imidazole-HCl, pH 7.5, and passed through a 10 mL column of ProBond resin similarly equilibrated. […] The peak fractions containing HPK1 were pooled and concentrated to approximately 2.5 mL by using a centrifugal concentrator (Millipore). The concentrated HPK1 was adjusted to 20% (v/v) glycerol by the addition of 50% (v/v) glycerol, resulting in a final formulation of 25 mM HEPES-NaOH pH 7.5, 250 mM NaCl, 0.25 mM TCEP and 20% (v/v) glycerol. […] Aliquots of the enzyme were flash frozen in liquid nitrogen and stored at −80° C. The final product contains a glycine-serine extension at the N-terminus of the full-length protein, as a result of the cloning strategy.

Chain of human full-length autophosphorylated recombinant HPK1 (Q92918 other isoform, or with tags, fused parts or gaps): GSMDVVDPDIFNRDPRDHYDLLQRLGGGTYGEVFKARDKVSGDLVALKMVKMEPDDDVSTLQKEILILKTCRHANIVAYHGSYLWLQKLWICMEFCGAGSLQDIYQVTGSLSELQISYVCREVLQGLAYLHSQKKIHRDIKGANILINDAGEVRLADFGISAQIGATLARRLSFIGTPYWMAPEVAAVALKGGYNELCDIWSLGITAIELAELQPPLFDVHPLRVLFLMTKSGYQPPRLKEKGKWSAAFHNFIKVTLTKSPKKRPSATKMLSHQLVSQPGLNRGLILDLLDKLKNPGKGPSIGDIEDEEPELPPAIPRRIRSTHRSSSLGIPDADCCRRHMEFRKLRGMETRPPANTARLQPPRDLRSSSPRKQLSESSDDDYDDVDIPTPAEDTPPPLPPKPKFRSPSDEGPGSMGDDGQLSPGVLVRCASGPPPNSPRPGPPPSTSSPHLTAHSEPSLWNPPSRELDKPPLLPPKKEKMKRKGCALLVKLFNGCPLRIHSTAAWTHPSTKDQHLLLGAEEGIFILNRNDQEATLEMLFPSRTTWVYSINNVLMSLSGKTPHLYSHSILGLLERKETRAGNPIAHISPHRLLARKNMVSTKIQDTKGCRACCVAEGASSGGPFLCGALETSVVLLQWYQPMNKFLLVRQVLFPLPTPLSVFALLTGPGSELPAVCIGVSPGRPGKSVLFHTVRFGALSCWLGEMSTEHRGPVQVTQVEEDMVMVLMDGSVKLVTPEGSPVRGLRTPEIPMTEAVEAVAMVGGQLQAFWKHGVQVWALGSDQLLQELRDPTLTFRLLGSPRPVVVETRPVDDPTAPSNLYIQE

| SMILES | IC50 [1] [nM] | Ki [2] [nM] |
| --- | --- | --- |
| CCCn1c(C)nnc1-c1cccc(N2Cc3c(cc(N(C)C(C)C)nc3[C@H](C)N)C2=O)n1 (single isomer, unassigned) [Example 149, 4-[(1ξ)-1-aminoethyl]-6-[methyl (propan-2-yl)amino]-2-[6-(5-methyl-4-propyl-4H-1,2,4-triazol-3-yl)pyridin-2-yl]-2,3-dihydro-1H-pyrrolo[3,4-c]pyridin-1-one] | 171 | 0.6 |
| CC[C@@H](N)c1nc(N2CCC[C@H]2C)cc2c1CN(c1cccc(-c3nnc4n3[C@@H](CO)CC4)n1)C2=O [Example 31, 4-[(1R)-1-aminopropyl]-2-{6-[(5R)-5-(hydroxy-methyl)-6,7-dihydro-5H-pyrrolo[2,1-c][1,2,4]triazol-3-yl]pyridin-2-yl}-6-[(2R)-2-methylpyrroli-din-1-yl]-2,3-dihydro-1H-pyrrolo[3,4-c]pyridin-1-one] | 42 | < 0.05 |
| CCCn1cnnc1-c1cccc(N2Cc3c(cc(N4CCC[C@H]4C)nc3[C@H](N)CC)C2=O)n1 [Example 144, 4-[(1R)-1-aminopropyl]-6-[(2R)-2-methylpyrroli-din-1-yl]-2-[6-(4-propyl-4H-1,2,4-triazol-3-yl)pyridin-2-yl]-2,3-dihydro-1H-pyrrolo[3,4-c]pyridin-1-one] | 90 | 0.11 |
| CC[C@@H](N)c1nc(N(C)C)cc2c1CN(c1cccc(-c3nnc4n3[C@@H](C)CC4)n1)C2=O [Example 28, 4-[(1R)-1-aminopropyl]-6-(dimethyl-amino)-2-{6-[(5S)-5-methyl-6,7-dihydro-5H-pyrrolo[2,1-c][1,2,4]triazol-3-yl]pyridin-2-yl}-2,3-dihydro-1H-pyrrolo[3,4-c]pyridin-1-one] | 64 | < 0.045 |
| CCCn1cnnc1-c1cccc(N2Cc3c(cc(N4CCC[C@H]4C)nc3[C@H](C)N)C2=O)n1 (single isomer, unassigned) [Example 102] | 107 | 0.11 |
| CC[C@H]1CCc2nnc(-c3cccc(N4Cc5c(cc(N6CCC[C@H]6C)nc5[C@H](N)CC)C4=O)n3)n21 (single isomer, unassigned) [Example 14] | 340 | 0.93 |
| CNCc1nc(N(C)C(C)C)cc2c1CN(c1cccc(-c3nnc4n3[C@@H](C)C[C@@H]4C)n1)C2=O [Example 211, 2-{6-[(5S,7S)-5,7-dimethyl-6,7-dihydro-5H-pyrrolo[2,1-c] [1,2,4]triazol-3-yl]pyridin-2-yl}-4-[(methyl-amino)methyl]-6-[methyl (propan-2-yl)amino]-2,3-dihydro-1H-pyrrolo[3,4-c] pyridin-1-one] | 78 | < 0.05 |
| CC[C@H]1CCc2nnc(-c3cccc(N4Cc5c(cc(N(C)C)nc5CNC)C4=O)n3)n21 [Example 206, 6-(dimethyl-amino)-2-{6-[(5S)-5-ethyl-6,7-dihydro-5H-pyrrolo[2,1-c] [1,2,4]triazol-3-yl]pyridin-2-yl}-4-[(methyl-amino)methyl]-2,3-dihydro-1H-pyrrolo[3,4-c] pyridin-1-one] | 78 | 0.12 |
| C[C@H]1CCc2nnc(-c3cccc(N4Cc5c(cc(N(C)C)nc5C(C)(C)N)C4=O)n3)n21 (single isomer, unassigned) [Example 22, 4-(2-aminopropan-2-yl)-6-(dimethyl-amino)-2-{6-[(5ξ)-5-methyl-6,7-dihydro-5H-pyrrolo[2,1-c][1,2,4]triazol-3-yl]pyridin-2-yl}-2,3-dihydro-1H-pyrrolo[3,4-c]pyridin-1-one] | 133 | 0.08 |
| CCCn1cnnc1-c1cccc(N2Cc3c(cc(C4(C)CC4)nc3[C@@H](N)CC)C2=O)n1 (single isomer, unassigned) [Example 122, 4-[(1ξ)-1-aminopropyl]-6-(1-methylcyclo-propyl)-2-[6-(4-propyl-4H-1,2,4-triazol-3-yl)pyridin-2-yl]-2,3-dihydro-1H-pyrrolo[3,4-c]pyridin-1-one] | 354 | 0.78 |
| CCN(C)c1cc2c(c(C(C)(C)N)n1)CN(c1cccc(-c3nncn3CC)n1)C2=O [Example 124, 4-(2-aminopropan-2-yl)-6-[ethyl(methyl)amino]-2-[6-(4-ethyl-4H-1,2,4-triazol-3-yl)pyridin-2-yl]-2,3-dihydro-1H-pyrrolo[3,4-c]pyridin-1-one] | 98 | 0.37 |
| CCCn1cnnc1-c1cccc(N2Cc3c(cc(C4(C)CC4)nc3[C@H](C)N)C2=O)n1 (single isomer, unassigned) [Example 118, 4-[(1ξ)-1-aminoethyl]-6-(1-methyl-cyclopropyl)-2-[6-(4-propyl-4H-1,2,4-triazol-3-yl)pyridin-2-yl]-2,3-dihydro-1H-pyrrolo[3,4-c]pyridin-1-one] | 324 | 1.5 |
| CCCn1c(C)nnc1-c1cccc(N2Cc3c(cc(N4CCC[C@H]4C)nc3[C@@H](C)N)C2=O)n1 (single isomer, unassigned) [Example 135] | 143 | 0.37 |
| CCn1c(C)nnc1-c1cccc(N2Cc3c(cc(N4CCC[C@H]4C)nc3[C@@H](C)N)C2=O)n1 (single isomer, unassigned) [Example 154] | 120 | 0.25 |
| CCCn1cnnc1-c1cccc(N2Cc3c(cc(C4(C)CC4)nc3[C@H](C)NC)C2=O)n1 [Example 113, 4-[(1S)-1-(methylamino)ethyl]-6-(1-methylcyclo-propyl)-2-[6-(4-propyl-4H-1,2,4-triazol-3-yl)pyridin-2-yl]-2,3-dihydro-1H-pyrrolo[3,4-c]pyridin-1-one] | 133 | 0.67 |
| CCCn1c(C)nnc1-c1cccc(N2Cc3c(cc(N(C)C(C)C)nc3C(C)(C)N)C2=O)n1 [Example 139, 4-(2-amino-propan-2-yl)-6-[methyl (propan-2-yl)amino]-2-[6-(5-methyl-4-propyl-4H-1,2,4-triazol-3-yl)pyridin-2-yl]-2,3-dihydro-1H-pyrrolo[3,4-c]pyridin-1-one] | 104 | 0.27 |
| CC[C@@H](N)c1nc(N(C)C(C)C)cc2c1CN(c1cccc(-c3nnc4n3[C@@H](CF)CC4)n1)C2=O [Example 34, 4-[(1R)-1-aminopropyl]-2-{6-[(5R)-5-(fluoromethyl)-6,7-dihydro-5H-pyrrolo[2,1-c][1,2,4]triazol-3-yl]pyridin-2-yl}-6-[methyl (propan-2-yl)amino]-2,3-dihydro-1H-pyrrolo[3,4-c]pyridin-1-one] | 26 | 0.15 |
| CC[C@@H]1CCc2nnc(-c3cccc(N4Cc5c(cc(N6CCC[C@H]6C)nc5CNC)C4=O)n3)n21 [Example 203, 2-{6-[(5R)-5-ethyl-6,7-dihydro-5H-pyrrolo[2,1-c] [1,2,4]triazol-3-yl]pyridin-2-yl}-4-[(methyl-amino)methyl]-6-[(2R)-2-methylpyrroli-din-1-yl]-2,3-dihydro-1H-pyrrolo[3,4-c] pyridin-1-one] | 182 | 1.04 |
